# In patent US20210077439A1 (priority 2016, published 2021):
# Tests used:
# [1] = system: quadriceps muscle; design: species or system New Zealand White rabbits; conditions: rabbit, in vivo
# [2] = system: quadriceps (knee extensor musculature); design: species or system New Zealand White rabbits; conditions: rabbit, in vivo
# [3] = system: joints (arthritis); conditions: dog, in vivo
# [4] = in vivo; cited from earlier work
# [5] = in vivo; cited from earlier work; remark: listed apart in the source
# [6] = system: skeletal muscle; conditions: in vivo; cited from earlier work
smiles,measurement,setting,value
"CC(C)(O)CC(=O)O [HMB, β-hydroxy-β-methylbutyric acid]",contralateral muscle weights as a percentage of body weight versus botox (p<0.10) and control (p<0.03) groups,[1],larger contralateral musculature
same,muscle hypertrophy in the contralateral leg,[1],greatly increased
same,botox-induced loss of strength in the contralateral musculature,[2],prevented much of the botox-induced loss of strength
same,"ataxia, owner-observed, after resuming the HMB regimen",[3],significant improvement
same,"joint stability and movement, owner-observed outcome",[3],"increased joint stability, decreased joint instability, improved balanced movement and stability of skeletal joints"
same,mobility after resuming the HMB regimen during anti-seizure medication,[3],"began standing up without assistance, and was able to climb stairs without significant assistance"
same,loss of HMB to urine,[4],20-50%
same,side effects,[5],no side effects
CC(C)(O)CC(=O)O [HMB-FA],decrease in protein breakdown,[6],−56%
same,increase in skeletal muscle protein synthesis,[6],+70%
same,plasma levels of HMB compared with calcium HMB,[4],approximately double
same,time to plasma level compared with calcium HMB,[4],about one-quarter the time
"NCC1(CC(=O)O)CCCCC1 [gabapentin, reference compound]",adverse effect of the seizure treatment,[3],severe ataxia
"CCC1(c2ccccc2)C(=O)NC(=O)NC1=O [phenobarbital, reference compound]",adverse effect of the seizure treatment,[3],severe ataxia
"[Br-].[K+] [potassium bromide, reference compound]",adverse effect of the seizure treatment,[3],severe ataxia
